Test results from ChEMBL document CHEMBL3045421, “5-Nitro-heteroarylidene analogs of 2-thiazolylimino-4-thiazolidinones as a novel series of antibacterial agents” (2013).
Converted amounts (≈) assume the structure as drawn.

Assays:
Assay type in all cases: functional
Helicobacter pylori [1] = assay: Antibacterial activity against Helicobacter pylori strain 3 assessed as diameter of growth inhibition zone at 64 ug/disk after 3-5 days by filter paper disk diffusion method; conditions: read-out: DIZ
Staphylococcus aureus = assay: microbe, parasite or virus in culture; conditions: ATCC 6538p, 24 h
Description: Antibacterial activity against Staphylococcus aureus ATCC 6538p assessed as growth inhibition after 24 hr by microdilution method

[2] = test system: Staphylococcus epidermidis; assay: microbe, parasite or virus in culture; conditions: ATCC 12228, 24 h
Description: Antibacterial activity against Staphylococcus epidermidis ATCC 12228 assessed as growth inhibition after 24 hr by microdilution method

Escherichia coli = assay: microbe, parasite or virus in culture; conditions: ATCC 8739, 24 h
Description: Antibacterial activity against Escherichia coli ATCC 8739 assessed as growth inhibition after 24 hr by microdilution method

Helicobacter pylori [3] = assay: Antibacterial activity against Helicobacter pylori strain 3 assessed as diameter of growth inhibition zone at 16 ug/disk after 3-5 days by filter paper disk diffusion method; conditions: read-out: DIZ
Pseudomonas aeruginosa = assay: microbe, parasite or virus in culture; conditions: ATCC 9027, 24 h
Description: Antibacterial activity against Pseudomonas aeruginosa ATCC 9027 assessed as growth inhibition after 24 hr by microdilution method

Helicobacter pylori [4] = assay: Antibacterial activity against Helicobacter pylori strain 3 assessed as diameter of growth inhibition zone at 32 ug/disk after 3-5 days by filter paper disk diffusion method; conditions: read-out: DIZ
Helicobacter pylori [5] = assay: Antibacterial activity against Helicobacter pylori strain 2 assessed as diameter of growth inhibition zone at 64 ug/disk after 3-5 days by filter paper disk diffusion method; conditions: read-out: DIZ
Helicobacter pylori [6] = assay: Antibacterial activity against Helicobacter pylori strain 1 assessed as diameter of growth inhibition zone at 32 ug/disk after 3-5 days by filter paper disk diffusion method; conditions: read-out: DIZ
Helicobacter pylori [7] = assay: Antibacterial activity against Helicobacter pylori strain 1 assessed as diameter of growth inhibition zone at 8 ug/disk after 3-5 days by filter paper disk diffusion method; conditions: read-out: DIZ
Helicobacter pylori [8] = assay: Antibacterial activity against Helicobacter pylori strain 3 assessed as diameter of growth inhibition zone at 8 ug/disk after 3-5 days by filter paper disk diffusion method; conditions: read-out: DIZ
Helicobacter pylori [9] = assay: Antibacterial activity against Helicobacter pylori strain 1 assessed as diameter of growth inhibition zone at 64 ug/disk after 3-5 days by filter paper disk diffusion method; conditions: read-out: DIZ
Helicobacter pylori [10] = assay: Antibacterial activity against Helicobacter pylori strain 2 assessed as diameter of growth inhibition zone at 8 ug/disk after 3-5 days by filter paper disk diffusion method; conditions: read-out: DIZ
Bacillus subtilis = assay: microbe, parasite or virus in culture; conditions: ATCC 6633, 24 h
Description: Antibacterial activity against Bacillus subtilis ATCC 6633 assessed as growth inhibition after 24 hr by microdilution method

Klebsiella pneumoniae = assay: microbe, parasite or virus in culture; conditions: ATCC 10031, 24 h
Description: Antibacterial activity against Klebsiella pneumoniae ATCC 10031 assessed as growth inhibition after 24 hr by microdilution method

Helicobacter pylori [11] = assay: Antibacterial activity against Helicobacter pylori strain 1 assessed as diameter of growth inhibition zone at 16 ug/disk after 3-5 days by filter paper disk diffusion method; conditions: read-out: DIZ
Helicobacter pylori [12] = assay: Antibacterial activity against Helicobacter pylori strain 2 assessed as diameter of growth inhibition zone at 16 ug/disk after 3-5 days by filter paper disk diffusion method; conditions: read-out: DIZ
Helicobacter pylori [13] = assay: Antibacterial activity against Helicobacter pylori strain 2 assessed as diameter of growth inhibition zone at 32 ug/disk after 3-5 days by filter paper disk diffusion method; conditions: read-out: DIZ

O=C1N/C(=N\c2nccs2)S/C1=C\c1ccc([N+](=O)[O-])o1
zone of inhibition at 64 µg/disc (Helicobacter pylori [1]): > 50 mm | MIC (Staphylococcus aureus): 0.97 µg/mL (≈ 3.01 µM) | MIC [2]: 0.006 µg/mL (≈ 0.0186 µM) | MIC (Escherichia coli): 1.56 µg/mL (≈ 4.84 µM) | zone of inhibition at 16 µg/disc (Helicobacter pylori [3]): > 50 mm | MIC (Pseudomonas aeruginosa): 0.39 µg/mL (≈ 1.21 µM) | zone of inhibition at 32 µg/disc (Helicobacter pylori [4]): > 50 mm | zone of inhibition at 64 µg/disc (Helicobacter pylori [5]): > 50 mm | zone of inhibition at 32 µg/disc (Helicobacter pylori [6]): > 50 mm | zone of inhibition at 8 µg/disc (Helicobacter pylori [7]): > 50 mm | zone of inhibition at 8 µg/disc (Helicobacter pylori [8]): > 50 mm | zone of inhibition at 64 µg/disc (Helicobacter pylori [9]): > 50 mm | zone of inhibition at 8 µg/disc (Helicobacter pylori [10]): > 50 mm | MIC (Bacillus subtilis): 0.19 µg/mL (≈ 0.589 µM) | MIC (Klebsiella pneumoniae): 1.56 µg/mL (≈ 4.84 µM) | zone of inhibition at 16 µg/disc (Helicobacter pylori [11]): > 50 mm | zone of inhibition at 16 µg/disc (Helicobacter pylori [12]): > 50 mm | zone of inhibition at 32 µg/disc (Helicobacter pylori [13]): > 50 mm
